From US20240383915A1, “OXAZEPINE COMPOUNDS AND USES THEREOF IN THE TREATMENT OF CANCER” (Genentech, Inc., priority 2021, published 2024)

Experiments:
KRas = KRas (Homo sapiens (Human), UniProt P01116); experiment: KRas GDP HTRF (BODIPY-GDP exchange TR-FRET); format: biochemical
Method in brief: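 Inhibition of SOS1-mediated exchange of BODIPY-GDP on KRAS G12D, started with 3 nM recombinant human SOS1 and 300 nM BODIPY-GDP and read after 60 min. TR-FRET excitation 337 nm, ratio 520/490 nm ×10,000. IC50 from 4-parameter Hill fit of normalized data.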

KRas(G12V) = KRas(G12V) (Homo sapiens (Human), UniProt P01116, G12V); experiment: KRas(G12V) GDP HTRF (BODIPY-GDP exchange TR-FRET); format: biochemical
PC-9 cells = experiment: PC9 proliferation assay; format: cell-based, human; settings: Homo sapiens, PC-9, PC9; read-out: PC9 Prolif IC50 (G12V)
SW480 cells = experiment: SW480 proliferation assay; format: cell-based; settings: Homo sapiens, SW480, SW480; read-out: SW480 Prolif IC50 (G12V)

Chain of KRas(G12V) (P01116-2 other isoform, or with tags, fused parts or gaps G12V): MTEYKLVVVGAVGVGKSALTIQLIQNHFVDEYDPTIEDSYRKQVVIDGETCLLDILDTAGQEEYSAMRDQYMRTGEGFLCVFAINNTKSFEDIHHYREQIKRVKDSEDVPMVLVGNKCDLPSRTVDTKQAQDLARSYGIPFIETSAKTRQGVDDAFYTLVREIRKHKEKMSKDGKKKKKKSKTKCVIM
Chain of KRas (P01116-2 other isoform, or with tags, fused parts or gaps): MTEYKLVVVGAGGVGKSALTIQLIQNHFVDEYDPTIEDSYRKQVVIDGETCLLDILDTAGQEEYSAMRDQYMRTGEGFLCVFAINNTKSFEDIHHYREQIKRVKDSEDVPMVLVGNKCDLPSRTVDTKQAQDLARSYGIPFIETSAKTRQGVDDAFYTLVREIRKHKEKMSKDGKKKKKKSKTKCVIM

Row | SMILES | IC50 (KRas) [nM] | IC50 (KRas(G12V)) [nM] | IC50 (PC-9 cells) [nM] | IC50 (SW480 cells) [nM]
1 | Cc1cc(N)nc(-c2c(Cl)c3c4c(nc(OC[C@@H]5C[C@@H]6C[N@@]5CCO6)nc4c2F)N([C@H](C)c2cccnc2N)CCO3)c1C(F)(F)F (atropisomer, axis not shown) [Example 92a, 6-((R)-2-(((1R,5R,7S)-4-oxa-1-azabicyclo[3.2.1]octan-7-yl)methoxy)-4-((R)-1-(2-aminopyridin-3-yl)ethyl)-8-chloro-10-fluoro-5,6-dihydro-4H-[1,4]oxazepino[5,6,7-de]quinazolin-9-yl)-4-methyl-5-(trifluoromethyl)pyridin-2-amine] | 0.0648 | 0.07 | 1800 | 37
2 | Cc1cc(N)nc(-c2c(Cl)c3c4c(nc(OC[C@H]5C[C@@H]6C[N@@]5CCO6)nc4c2F)N([C@H](C)c2cccnc2N)CCO3)c1C(F)(F)F (atropisomer, axis not shown) [Example 92b, 6-((R)-2-(((1R,5R,7R)-4-oxa-1-azabicyclo[3.2.1]octan-7-yl)methoxy)-4-((R)-1-(2-aminopyridin-3-yl)ethyl)-8-chloro-10-fluoro-5,6-dihydro-4H-[1,4]oxazepino[5,6,7-de]quinazolin-9-yl)-4-methyl-5-(trifluoromethyl)pyridin-2-amine] | 1.89 | 0.31 | 6000 | 700
3 | Cc1cc(N)nc(-c2c(Cl)c3c4c(nc(OC[C@@H]5C[C@@H](F)CN5C)nc4c2F)N([C@H](C)c2cccnc2N)CCO3)c1C(F)(F)F (atropisomer, axis not shown) [Example 106, 6-((R)-4-((R)-1-(2-aminopyridin-3-yl)ethyl)-8-chloro-10-fluoro-2-(((2S,4R)-4-fluoro-1-methylpyrrolidin-2-yl)methoxy)-5,6-dihydro-4H-[1,4]oxazepino[5,6,7-de]quinazolin-9-yl)-4-methyl-5-(trifluoromethyl)pyridin-2-amine] | 0.14 | 0.13 | 970 | 9.4
4 | Cc1cc(N)nc(-c2c(Cl)c3c4c(nc(OC[C@@H]5CCN5CC(F)F)nc4c2F)N([C@H](C)c2cccnc2N)CCO3)c1C(F)(F)F (atropisomer, axis not shown) [Example 109, 6-((R)-4-((R)-1-(2-aminopyridin-3-yl)ethyl)-8-chloro-2-(((S)-1-(2,2-difluoroethyl)azetidin-2-yl)methoxy)-10-fluoro-5,6-dihydro-4H-[1,4]oxazepino[5,6,7-de]quinazolin-9-yl)-4-methyl-5-(trifluoromethyl)pyridin-2-amine] | 0.222 | 0.18 | 13000 | 2.8
5 | Cc1cc(N)nc(-c2c(Cl)c3c4c(nc(OC[C@@]56CCCN5C[C@]5(CC5(F)F)C6)nc4c2F)N([C@H](C)c2cccnc2N)CCO3)c1C(F)(F)F (atropisomer, axis not shown) [Example 111a, 6-((R)-4-((R)-1-(2-aminopyridin-3-yl)ethyl)-8-chloro-2-(((1R,7a′S)-2,2-difluorodihydro-1′H,3′H-spiro[cyclopropane-1,2′-pyrrolizin]-7a′(5′H)-yl)methoxy)-10-fluoro-5,6-dihydro-4H-[1,4]oxazepino[5,6,7-de]quinazolin-9-yl)-4-methyl-5-(trifluoromethyl)pyridin-2-amine] | 0.85 | 0.36 | 7400 | 1.8
6 | Cc1cc(N)nc(-c2c(Cl)c3c4c(nc(OC[C@@H]5CC(F)(F)CN5C)nc4c2F)N([C@H](C)c2cccnc2N)CCO3)c1C(F)(F)F (atropisomer, axis not shown) [Example 112, 6-((R)-4-((R)-1-(2-aminopyridin-3-yl)ethyl)-8-chloro-2-(((S)-4,4-difluoro-1-methylpyrrolidin-2-yl)methoxy)-10-fluoro-5,6-dihydro-4H-[1,4]oxazepino[5,6,7-de]quinazolin-9-yl)-4-methyl-5-(trifluoromethyl)pyridin-2-amine] | 0.32 | 0.2 | 4300 | 1.8
7 | Cc1cc(N)nc(-c2c(Cl)c3c4c(nc(OC[C@@]56CCN5CC(F)(F)C6)nc4c2F)N([C@H](C)c2cccnc2N)CCO3)c1C(F)(F)F (atropisomer, axis not shown) [Example 114a, 6-((R)-4-((R)-1-(2-aminopyridin-3-yl)ethyl)-8-chloro-2-(((S)-3,3-difluoro-1-azabicyclo[3.2.0]heptan-5-yl)methoxy)-10-fluoro-5,6-dihydro-4H-[1,4]oxazepino[5,6,7-de]quinazolin-9-yl)-4-methyl-5-(trifluoromethyl)pyridin-2-amine] | 0.39 | 0.24 | 7000 | 3.2
8 | Cc1cc(N)nc(-c2c(Cl)c3c4c(nc(OC[C@]56CCN5CC(F)(F)C6)nc4c2F)N([C@H](C)c2cccnc2N)CCO3)c1C(F)(F)F (atropisomer, axis not shown) [Example 114b, 6-((R)-4-((R)-1-(2-aminopyridin-3-yl)ethyl)-8-chloro-2-(((R)-3,3-difluoro-1-azabicyclo[3.2.0]heptan-5-yl)methoxy)-10-fluoro-5,6-dihydro-4H-[1,4]oxazepino[5,6,7-de]quinazolin-9-yl)-4-methyl-5-(trifluoromethyl)pyridin-2-amine] | 0.46 | 0.22 | 7600 | 3

The next lines start with the values.

Row | IC50 (KRas) [nM] | IC50 (KRas(G12V)) [nM] | IC50 (PC-9 cells) [nM] | IC50 (SW480 cells) [nM] | SMILES
9 | 0.9 | 0.47 | 15000 | 16 | Cc1cc(N)nc(-c2c(Cl)c3c4c(nc(OC[C@@H]5CCCN5CC(F)F)nc4c2F)N([C@H](C)c2cccnc2N)CCO3)c1C(F)(F)F (atropisomer, axis not shown) [Example 115, 6-((R)-4-((R)-1-(2-aminopyridin-3-yl)ethyl)-8-chloro-2-(((S)-1-(2,2-difluoroethyl)pyrrolidin-2-yl)methoxy)-10-fluoro-5,6-dihydro-4H-[1,4]oxazepino[5,6,7-de]quinazolin-9-yl)-4-methyl-5-(trifluoromethyl)pyridin-2-amine]
10 | 0.0519 | 0.074 | 1600 | 4.6 | C=C1CN2CCC[C@@]2(COc2nc3c4c(c(Cl)c(-c5nc(N)cc(C)c5C(F)(F)F)c(F)c4n2)OCCN3[C@H](C)c2cccnc2N)C1 (atropisomer, axis not shown) [Example 116, 6-((R)-4-((R)-1-(2-aminopyridin-3-yl)ethyl)-8-chloro-10-fluoro-2-(((S)-2-methylenetetrahydro-1H-pyrrolizin-7a(5H)-yl)methoxy)-5,6-dihydro-4H-[1,4]oxazepino[5,6,7-de]quinazolin-9-yl)-4-methyl-5-(trifluoromethyl)pyridin-2-amine]
11 | 0.18 | 0.08 | 6300 | 12 | Cc1cc(N)nc(-c2c(Cl)c3c4c(nc(OC[C@@H]5CCCN5C5COC5)nc4c2F)N([C@H](C)c2cccnc2N)CCO3)c1C(F)(F)F (atropisomer, axis not shown) [Example 117, 6-((R)-4-((R)-1-(2-aminopyridin-3-yl)ethyl)-8-chloro-10-fluoro-2-(((S)-1-(oxetan-3-yl)pyrrolidin-2-yl)methoxy)-5,6-dihydro-4H-[1,4]oxazepino[5,6,7-de]quinazolin-9-yl)-4-methyl-5-(trifluoromethyl)pyridin-2-amine]
12 | 0.437 | 0.07 | 4900 | 1100 | Cc1cc(N)nc(-c2c(Cl)c3c4c(nc(OC[C@@H]5CCC(=O)N5)nc4c2F)N([C@H](C)c2cccnc2N)CCO3)c1C(F)(F)F (atropisomer, axis not shown) [Example 121, (S)-5-((((R)-9-(6-amino-4-methyl-3-(trifluoromethyl)pyridin-2-yl)-4-((R)-1-(2-aminopyridin-3-yl)ethyl)-8-chloro-10-fluoro-5,6-dihydro-4H-[1,4]oxazepino[5,6,7-de]quinazolin-2-yl)oxy)methyl)pyrrolidin-2-one]
13 | 4.49 | 0.5 | 2900 | 180 | Cc1cc(N)nc(-c2c(Cl)c3c4c(nc(OC[C@]5(C)CC(F)(F)CN5C)nc4c2F)N([C@H](C)c2cccnc2N)CCO3)c1C(F)(F)F (atropisomer, axis not shown) [Example 122a, 6-((R)-4-((R)-1-(2-aminopyridin-3-yl)ethyl)-8-chloro-2-(((S)-4,4-difluoro-1,2-dimethylpyrrolidin-2-yl)methoxy)-10-fluoro-5,6-dihydro-4H-[1,4]oxazepino[5,6,7-de]quinazolin-9-yl)-4-methyl-5-(trifluoromethyl)pyridin-2-amine]
14 | 0.202 | 0.095 | 9400 | 17 | Cc1cc(N)nc(-c2c(Cl)c3c4c(nc(OC[C@@]5(C)CC(F)(F)CN5C)nc4c2F)N([C@H](C)c2cccnc2N)CCO3)c1C(F)(F)F (atropisomer, axis not shown) [Example 122b, 6-((R)-4-((R)-1-(2-aminopyridin-3-yl)ethyl)-8-chloro-2-(((R)-4,4-difluoro-1,2-dimethylpyrrolidin-2-yl)methoxy)-10-fluoro-5,6-dihydro-4H-[1,4]oxazepino[5,6,7-de]quinazolin-9-yl)-4-methyl-5-(trifluoromethyl)pyridin-2-amine]
15 | 0.204 | 0.1 | 2700 | 70 | Cc1cc(N)nc(-c2c(Cl)c3c4c(nc(OC[C@H]5CN(C)CCO5)nc4c2F)N([C@H](C)c2cccnc2N)CCO3)c1C(F)(F)F (atropisomer, axis not shown) [Example 124, 6-((R)-4-((R)-1-(2-aminopyridin-3-yl)ethyl)-8-chloro-10-fluoro-2-(((R)-4-methylmorpholin-2-yl)methoxy)-5,6-dihydro-4H-[1,4]oxazepino[5,6,7-de]quinazolin-9-yl)-4-methyl-5-(trifluoromethyl)pyridin-2-amine]
